According to ChEMBL document CHEMBL4742389, “Cyclohexyl benzamide compounds” (2019):

Key:
[1] = target: T1, Probable G-protein coupled receptor 142 (Homo sapiens, UniProt Q7Z601); experiment: Agonist activity at human GPR142 receptor expressed in HEK293 cells assessed as accumulation of inositol phosphate incubated for 1 hr followed by IP1-d2 addition by HTRF assay; type: functional, cell-based
T1 sequence (Q7Z601 whole entry): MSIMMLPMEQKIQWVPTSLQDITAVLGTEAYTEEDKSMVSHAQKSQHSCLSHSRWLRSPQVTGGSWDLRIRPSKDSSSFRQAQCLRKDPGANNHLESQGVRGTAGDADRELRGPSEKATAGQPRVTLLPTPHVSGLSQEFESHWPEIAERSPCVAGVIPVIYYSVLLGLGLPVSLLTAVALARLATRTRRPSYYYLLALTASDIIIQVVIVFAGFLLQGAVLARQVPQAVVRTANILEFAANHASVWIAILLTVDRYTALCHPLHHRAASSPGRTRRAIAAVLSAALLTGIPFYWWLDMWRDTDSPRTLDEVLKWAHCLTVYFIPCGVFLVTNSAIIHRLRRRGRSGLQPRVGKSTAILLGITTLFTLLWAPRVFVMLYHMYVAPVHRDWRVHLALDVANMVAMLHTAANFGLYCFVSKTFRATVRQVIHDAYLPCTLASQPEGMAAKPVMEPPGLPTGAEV

[2] = target: T2, Probable G-protein coupled receptor 142 (Homo sapiens) (UniProt Q7Z601); experiment: Agonist activity at human GPR142 receptor expressed in HEK293 cells assessed as accumulation of inositol phosphate incubated for 1 hr followed by IP1-d2 addition by HTRF assay relative to control; type: functional, cell-based; details: filed as agonist
T2 sequence (whole entry): T1 sequence (Q7Z601 whole entry)

Mus musculus = experiment: Antidiabetic activity in po dosed lean C57BL/6J mouse assessed as reduction in glucose level administered 90 mins prior to glucose challenge measured for 60 mins by IPGTT; type: functional; details: 2.5 h, time 150 min

EC50 [1] [nM]	Efficacy [2] [%]	Structure (SMILES)	ED50 (Mus musculus) [mg/kg]
< 120	120	Cc1ncc(-c2nnc([C@H]3CCC[C@@H](N(C)C(=O)c4cccc(Cl)c4)C3)[nH]2)n1C	–
< 120	120	Cc1ncn(CC(F)F)c1-c1nnc([C@H]2CCC[C@@H](N(C)C(=O)c3cccc(C(F)(F)F)c3)C2)[nH]1	–
–	120	Cc1ncn(C)c1-c1nnc([C@@H]2CCC[C@H](N(C)C(=O)c3cccc(Cl)c3)C2)[nH]1	–
< 120	120	Cc1ncc(-c2nnc([C@H]3CCC[C@@H](N(C)C(=O)c4cccc(C(F)(F)F)c4)C3)[nH]2)[nH]1	–
< 120	120	Cc1ncn(C)c1-c1nnc([C@H]2CCC[C@@H](N(C)C(=O)c3cccc(C(F)(F)F)c3)C2)[nH]1	–
–	110	Cc1ncn(C)c1-c1nnc([C@H]2CCC[C@@H](N(C)C(=O)c3cccc(Cl)c3)C2)[nH]1	0.25
< 120	120	Cc1nc[nH]c1-c1nnc([C@H]2CCC[C@@H](N(C)C(=O)c3cccc(OC(F)(F)F)c3)C2)[nH]1	–
< 120	120	Cc1ncc(-c2nnc([C@H]3CCC[C@@H](N(C)C(=O)c4cccc(C(F)(F)F)c4)C3)[nH]2)n1C	–
< 120	120	Cc1nc[nH]c1-c1nnc([C@H]2CCC[C@@H](N(C)C(=O)c3cccc(C(F)(F)F)c3)C2)[nH]1	–
< 120	120	CN(C(=O)c1cccc(C(F)(F)F)c1)[C@@H]1CCC[C@H](c2nnc(-c3cnc4n3CCOC4)[nH]2)C1	–
< 120	120	COCCn1cnc(C)c1-c1nnc([C@H]2CCC[C@@H](N(C)C(=O)c3cccc(Cl)c3)C2)[nH]1	–
< 120	120	Cc1nc[nH]c1-c1nnc([C@H]2CCC[C@@H](N(C)C(=O)c3cccc(Cl)c3)C2)[nH]1	–
